Laboratory results: patent US20150250166A1, “NOOTKATONE AS AN INSECTICIDE AND INSECT REPELLENT” (ALLYLIX, INC., priority 2012, published 2015)

Assays:
[1] = test system: adult cat fleas (Ctenocephalides felis); assay: Direct spray knockdown of adult cat fleas; type: in vivo; settings: 10% nootkatone; for cat fleas knocked down, average count of 5 trials (of 10): 0.1% BHT in isopropanol
Protocol: (§1) A direct spray formulation, containing 10% nootkatone, 0.1% butylated hydroxytoluene (BHT) in isopropanol, stored at ambient temperature and humidity, was tested for efficacy for knockdown and mortality among adult cat fleas (Ctenocephalides felis). Five replicates of 10 adult cat fleas (El Labs Inc (Soquel, Calif.)) were emptied from 9 dram vials into 5 gallon HDPE Payliner® pail liners lined with paper towels. Each replicate was sprayed manually with 1 gram±0.1 grams of the 10% nootkatone formulation from the rim of the pail liner. The spray bottle was weighed before and after treating each replicate to confirm the weight of the test sample dispensed. Five control replicates of 10 adult cat fleas were treated with isopropyl alcohol, following the same protocol. The study provided a single treatment of 10% nootkatone formulation or isopropyl alcohol. All spraying took place in a vented, stainless steel Peet Grady chamber (6×6×6 ft).
The average weight of isopropanol and 10% nootkatone formulation applied to the five replicates was 1.0 g and 1.07 g, respectively. […] Knockdown was defined as the failure of the cat flea to jump even following exhalation of a technician into the pail liner.

[2] = test system: adult cat fleas (Ctenocephalides felis); type: in vivo; settings: 10% nootkatone in isopropanol, direct spray; 24 hours
Protocol: as §1
Following the knockdown studies, the payliners containing cat fleas were kept at ambient temperature and humidity in the laboratory. Mortality of cat fleas following isopropanol (control) and 10% nootkatone treatments was then recorded 24 hours after solution administration. Dead fleas were confirmed by probing the fleas or exhaling into the payliner to ensure lack of movement. […] Cat fleas that were able to jump were recorded as being alive. The number of moribund and dead fleas per replicate were added together for a total mortality count and divided by the number of fleas tested to derive percent mortality.

C=C(C)[C@@H]1CCC2=CC(=O)C[C@@H](C)[C@]2(C)C1 [nootkatone, 4,4a,5,6,7,8-hexahydro-6-isopropenyl-4,4a-dimethyl-2(3H)-naphtalenone]
cat flea knockdown efficacy, in words [1]: not effective in knocking down cat fleas
cat fleas knocked down, average count of 5 trials (of 10) ([1]; 0.5 min): 0.2
cat fleas knocked down, average count of 5 trials (of 10) ([1]; 1 min): 0.2
cat fleas knocked down, average count of 5 trials (of 10) ([1]; 2 min): 0.4
cat fleas knocked down, average count of 5 trials (of 10) ([1]; 3 min): 0
cat fleas knocked down, average count of 5 trials (of 10) ([1]; 4 min): 0.2
cat fleas knocked down, average count of 5 trials (of 10) ([1]; 5 min): 0.4
cat fleas knocked down, average count of 5 trials (of 10) ([1]; 15 min): 0
fleas knocked down, in words ([1]; 15 minutes): no fleas were knocked down
fleas knocked down ([1]; within the first 5 minutes): no more than 4%
Alive, average cat flea count of 5 trials (of 10) [2]: 0
Dead, average cat flea count of 5 trials (of 10) [2]: 9.6
Moribund, average cat flea count of 5 trials (of 10) [2]: 0.4
Mortality (moribund plus dead) of cat fleas [2]: 100%
